Assay results: patent publication US8871767B2, “2-arylimidazo[1,2-B]pyridazine, 2-phenylimidazo[1,2-A]pyridine, and 2-phenylimidazo[1,2-A]pyrazine derivatives” (Hengrui (USA) Ltd., priority 2010, dated 2014)
Where two headings read alike, the source gives them in different places.

How the values were obtained:
[1] = tested on: Hedgehog pathway activation on 10T1/2/Smo#3 cells (C3H10T1/2 cells transfected with human Smoothened receptor); assay: Hedgehog pathway activation on 10T1/2/Smo#3 cells measured by ALP activity; format: cell-based; settings: Mus musculus, C3H 10T1/2, 10T1/2/Smo#3 cells
Method: Hedgehog conditioned media was obtained by transfecting 293H cells with the full length gene encoding human Sonic Hedgehog (hShh) inserted into the pCMV6 expression vector, which contains a neomycin selectable marker and expresses the protein of interest with a C-terminal FLAG affinity tag. After selection in G418 containing media, conditioned media from Hedgehog expressing clones were tested for the ability to activate the hedgehog-responsive GLi-luciferase reporter in the Shh Light II cell line obtained by license from John Hopkins University (Taipale J, et al. Effects of oncogenic mutations in Smoothened and Patched can be reversed by cyclopamine. Nature 406: 1005-1009, 2000).
C3H10T1/2 cells were transfected with a pCMV expression vector containing the full length gene sequence encoding the human Smoothened receptor. Pooled cells, designated 10T1/2/Smo#3, growing in G418 selection media responded to activation by 10-20% conditioned hShh media with an approximate 5-10 fold increase in alkaline phosphaste (ALP) activity over untransfected parent C3H10T1/2 cells as measured by the conversion of the free acid of 4-methylumbelliferyl phosphate to a fluorescent product.
A test compound library was screened against hShh and 500 nM SAG (a direct agonist of the Smoothened receptor) activated 10T1/2/Smo#3 cells and Shh Light II reporter cells for the ability to block Hedgehog pathway activation. Concurrently, cell viability was measured by utilizing Celltiter-Blue® (Promega, Madison Wis.) viability assay. Active compounds were defined as those that inhibited Hedgehog signaling by greater than 50% with no concurrent loss in cell viability.
Their inhibitory activity against Hedgehog pathway activation on 10T1/2/Smo#3 cells as measured by ALP activity and Shh Light II reporter cells as measured by luciferase activity is shown in Table 1 below. In Table 1, +++ stands for an IC50 value that is less than 0.3 μM, ++ between 0.3 and 3 μM, + between 3 and 30 μM.
Additional data for compounds of the invention is shown below in Table 2. Their inhibitory activities against Hedgehog pathway activation are shown as IC50 values in μM on 10T1/2/Smo#3 cells as measured by ALP activity, or on Shh Light II reporter cells as measured by luciferase activity (hShh activation).

[2] = tested on: Hedgehog pathway activation (GLi-luciferase reporter) in Shh Light II reporter cells; assay: Hedgehog pathway activation on Shh Light II reporter cells measured by luciferase activity; format: cell-based; settings: Mus musculus, Shh Light II
Summary of the method: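 Shh Light II reporter cells carrying a hedgehog-responsive GLi-luciferase reporter were stimulated either with 500 nM SAG, a direct Smoothened agonist, or with conditioned media containing human Sonic Hedgehog (hShh). Test compounds were evaluated for blocking this pathway activation, quantified by luciferase activity. Cell viability was monitored in parallel with the Celltiter-Blue® assay.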

[3] = measured by ALP activity, read-out: ALP (IC50, inhibition of Hedgehog pathway activation)
[4] = hShh activation, read-out: Shh (IC50, inhibition of Hedgehog pathway activation)
[5] = hShh activation, ALP activity, read-out: 10T1/2/Smo#3 ALP activity (hShh Activation)
[6] = SAG activation (500 nM SAG), read-out: Shh Light II luciferase activity (SAG activation)
[7] = hShh activation, read-out: Shh Light II luciferase activity (hShh activation)

| IC50 [1, 3] | IC50 [2, 4] | IC50 [1, 5] | IC50 [2, 6] | IC50 [2, 7] | Compound |
| --- | --- | --- | --- | --- | --- |
| 3.93 µM | > 10 µM |  |  |  | COc1cc(CNc2cc(-c3cn4nc(OC)ccc4n3)ccc2C)cc(OC)c1 [Example 103, N-(3,5-dimethoxybenzyl)-5-(6-methoxyimidazo[1,2-b]pyridazin-2-yl)-2-methylaniline] |
| 0.746 µM | 0.365 µM |  |  |  | Cc1ccc(-c2cn3nc(-c4cccc(OCC(=O)NO)c4C(F)(F)F)ccc3n2)cc1NC(=O)C(C)(C)C [Example 439, N-(5-(6-(3-(2-(hydroxyamino)-2-oxoethoxy)-2-(trifluoromethyl)phenyl)imidazo[1,2-b]pyridazin-2-yl)-2-methylphenyl)pivalamide] |
| 0.082 µM | 0.083 µM |  |  |  | Cc1ccc(-c2cn3nc(-c4cccnc4F)ccc3n2)cc1NC(=O)C(C)(C)C [Example 265, N-(5-(6-(2-fluoropyridin-3-yl)imidazo[1,2-b]pyridazin-2-yl)-2-methylphenyl)pivalamide] |
| 0.228 µM | 0.162 µM |  |  |  | Cc1ccc(-c2cn3nc(-c4cccnc4C)ccc3n2)cc1NC(=O)C(C)(C)C [Example 278, N-(2-methyl-5-(6-(2-methylpyridin-3-yl)imidazo[1,2-b]pyridazin-2-yl)phenyl)pivalamide] |
| 8.38 µM | > 10 µM |  |  |  | CCOc1ccc2nc(-c3ccc(C(F)(F)F)c(NC(=O)C4CC4)c3)cn2n1 [Example 186, N-(5-(6-ethoxyimidazo[1,2-b]pyridazin-2-yl)-2-(trifluoromethyl)phenyl)cyclopropanecarboxamide] |
| 2.34 µM | 7.76 µM |  |  |  | CCOc1ccc2nc(-c3ccc(C(F)(F)F)c(NC(=O)c4cccnc4)c3)cn2n1 [Example 193, N-(5-(6-ethoxyimidazo[1,2-b]pyridazin-2-yl)-2-(trifluoromethyl)phenyl)nicotinamide] |
| 0.213 µM | 0.278 µM |  |  |  | CC(C)(C)C(=O)Nc1cc(-c2cn3nc(-c4cccnc4Cl)ccc3n2)ccc1C(F)(F)F [Example 334, N-(5-(6-(2-chloropyridin-3-yl)imidazo[1,2-b]pyridazin-2-yl)-2-(trifluoromethyl)phenyl)pivalamide] |
| 0.019 µM | 0.047 µM |  |  |  | CC(C)(C)C(=O)Nc1cc(-c2cn3nc(-c4cccnc4C(F)(F)F)ccc3n2)ccc1C(F)(F)F [Example 292, N-(2-(trifluoromethyl)-5-(6-(2-(trifluoromethyl)pyridin-3-yl)imidazo[1,2-b]pyridazin-2-yl)phenyl)pivalamide] |
| 1.57 µM | 0.579 µM |  |  |  | CCOc1ccc2nc(-c3ccc(C(F)(F)F)c(NC(=O)c4ccccc4)c3)cn2n1 [Example 191, N-(5-(6-ethoxyimidazo[1,2-b]pyridazin-2-yl)-2-(trifluoromethyl)phenyl)benzamide] |
| 9.45 µM | > 10 µM |  |  |  | FC(F)(F)c1ccc(-c2cn3nc(Cl)ccc3n2)cc1Br [Example 203, 2-(3-bromo-4-(trifluoromethyl)phenyl)-6-chloroimidazo[1,2-b]pyridazine] |
| 0.02 µM | 0.144 µM |  |  |  | Cc1ccc(-c2cn3nc(-c4cc(C#N)ccc4F)ccc3n2)cc1NC(=O)C(C)(C)C [Example 274, N-(5-(6-(5-cyano-2-fluorophenyl)imidazo[1,2-b]pyridazin-2-yl)-2-methylphenyl)pivalamide] |
| 1.21 µM | 0.613 µM |  |  |  | Cc1ccc(-c2cn3nc(Cl)ccc3n2)cc1NC(=O)C(C)(C)C [Example 118, N-(5-(6-chloroimidazo[1,2-b]pyridazin-2-yl)-2-methylphenyl)pivalamide] |
| 0.236 µM | 0.475 µM |  |  |  | Cc1ccc(-c2cn3nc(-c4ccc(F)nc4F)ccc3n2)cc1NC(=O)C(C)(C)C [Example 280, N-(5-(6-(2,6-difluoropyridin-3-yl)imidazo[1,2-b]pyridazin-2-yl)-2-methylphenyl)pivalamide] |
| 1.71 µM | 3.09 µM |  |  |  | CC(C)(C)C(=O)Nc1cc(-c2cn3nc(-c4cnccc4Cl)ccc3n2)ccc1C(F)(F)F [Example 386, N-(5-(6-(4-chloropyridin-3-yl)imidazo[1,2-b]pyridazin-2-yl)-2-(trifluoromethyl)phenyl)pivalamide] |
| 2.42 µM | 2.08 µM |  |  |  | Cc1ccc(-c2nc3ccc(Cl)nn3c2C)cc1NC(=O)C(C)(C)C [Example 311, N-(5-(6-chloro-3-methylimidazo[1,2-b]pyridazin-2-yl)-2-methylphenyl)pivalamide] |
| 5.57 µM | 7.72 µM |  |  |  | CC(C)(C)C(=O)Nc1cc(-c2cn3nc(Cl)ccc3n2)ccc1C(F)(F)F [Example 126, N-(5-(6-chloroimidazo[1,2-b]pyridazin-2-yl)-2-(trifluoromethyl)phenyl)pivalamide] |
| 0.49 µM | 0.563 µM |  |  |  | CC(=O)Nc1ccccc1-c1ccc2nc(-c3ccc(C(F)(F)F)c(NC(=O)C(C)(C)C)c3)cn2n1 [Example 255, N-(5-(6-(2-acetamidophenyl)imidazo[1,2-b]pyridazin-2-yl)-2-(trifluoromethyl)phenyl)pivalamide] |
| 0.007 µM | 0.004 µM |  |  |  | Cc1ccc(-c2cn3nc(-c4ccc(C(=N)N)cc4C(F)(F)F)ccc3n2)cc1NC(=O)C(C)(C)C [compound 543, N-(5-(6-(4-carbamimidoyl-2-(trifluoromethyl)phenyl)imidazo[1,2-b]pyridazin-2-yl)-2-methylphenyl)pivalamide] |
| 0.565 µM | 0.086 µM |  |  |  | CC(C)(C)CC(=O)Nc1cc(-c2cn3nc(-c4cccnc4C(F)(F)F)ccc3n2)ccc1Cl [Example 672, N-(2-chloro-5-(6-(2-(trifluoromethyl)pyridin-3-yl)imidazo[1,2-b]pyridazin-2-yl)phenyl)-3,3-dimethylbutanamide] |
| 2.98 µM | 1.92 µM | 0.3 to 3 µM | 0.3 to 3 µM | 0.3 to 3 µM | Cc1c(-c2ccccc2)nc2ccc(NC3CCN(Cc4ccccc4)CC3)nn12 [Example 168, N-(1-benzylpiperidin-4-yl)-3-methyl-2-phenylimidazo[1,2-b]pyridazin-6-amine] |
| 0.211 µM | 0.245 µM |  |  |  | CC(C)(C)C(=O)Nc1cc(-c2cn3nc(N4CCC(O)CC4)ccc3n2)ccc1C(F)(F)F [Example 237, N-(5-(6-(4-hydroxypiperidin-1-yl)imidazo[1,2-b]pyridazin-2-yl)-2-(trifluoromethyl)phenyl)pivalamide] |
| 0.285 µM | 0.039 µM | < 0.3 µM | < 0.3 µM | < 0.3 µM | Cc1ccc(-c2cn3nc(-c4ccc(C(=O)Nc5ccccc5N)cc4)ccc3n2)cc1NC(=O)C(C)(C)C [compound 597] |
| 0.387 µM | 0.225 µM |  |  |  | CC(C)(C)C(=O)Nc1cc(-c2cn3nc(N4CCC[C@H](O)C4)ccc3n2)ccc1C(F)(F)F [Example 358, (S)-N-(5-(6-(3-hydroxypiperidin-1-yl)imidazo[1,2-b]pyridazin-2-yl)-2-(trifluoromethyl)phenyl)pivalamide] |
| 0.875 µM | 0.357 µM |  |  |  | COc1ccccc1Oc1ccc2nc(-c3ccc(C(F)(F)F)c(NC(=O)C(C)(C)C)c3)cn2n1 [Example 197, N-(5-(6-(2-methoxyphenoxy)imidazo[1,2-b]pyridazin-2-yl)-2-(trifluoromethyl)phenyl)pivalamide] |
| 9.02 µM | > 10 µM |  |  |  | COc1ccc2nc(-c3ccc(Cl)c(NC(=O)CC(F)(F)F)c3)cn2n1 [Example 111, N-(2-chloro-5-(6-methoxyimidazo[1,2-b]pyridazin-2-yl)phenyl)-3,3,3-trifluoropropanamide] |
| 0.022 µM | 0.046 µM |  |  |  | Cc1ccc(-c2cn3nc(N4CC[C@@H](O)C4)ccc3n2)cc1NC(=O)C(C)(C)C [Example 347, (R)-N-(5-(6-(3-hydroxypyrrolidin-1-yl)imidazo[1,2-b]pyridazin-2-yl)-2-methylphenyl)pivalamide] |
| 0.274 µM | 0.139 µM |  |  |  | CCN(CC)C(=O)Nc1cc(-c2cn3nc(-c4cccnc4C(F)(F)F)ccc3n2)ccc1F [Example 685, 1,1-diethyl-3-(2-fluoro-5-(6-(2-(trifluoromethyl)pyridin-3-yl)imidazo[1,2-b]pyridazin-2-yl)phenyl)urea] |
